Test results as given in ChEMBL document CHEMBL3091296, “Design, synthesis and biological evaluation of 3-benzyloxy-linked pyrimidinylphenylamine derivatives as potent HIV-1 NNRTIs” (Bioorg Med Chem, 2013).

How the values were obtained:
[1] = tested on: Human immunodeficiency virus 1; assay: Antiviral activity against HIV1 harboring reverse transcriptase K103N/Y181C mutant infected in MT4 cells assessed as reduction in virus-induced cytopathic effect after 5 days by MTT assay; type: functional, organism-based; details: Human immunodeficiency virus 1, MT4, 120 h
[2] = tested on: Human immunodeficiency virus 1; assay: Antiviral activity against wild-type HIV1 3B infected in MT4 cells assessed as reduction in virus-induced cytopathic effect after 5 days by MTT assay; type: functional, organism-based; details: Human immunodeficiency virus 1, 3B, MT4, 120 h
[3] = Selectivity index, ratio of CC50 for human MT4 cells to EC50 for wild-type HIV1 3B infected in MT4 cells; type: toxicity, cell-based; details: read-out: Ratio CC50/EC50
[4] = tested on: Human immunodeficiency virus 2; assay: Antiviral activity against HIV2 ROD infected in MT4 cells assessed as reduction in virus-induced cytopathic effect after 5 days by MTT assay; type: functional, organism-based; details: Human immunodeficiency virus 2, ISOLATE ROD, MT4, 120 h
[5] = Cytotoxicity against mock-infected human MT4 cells after 5 days by MTT assay; type: cell-based
[6] = target: Human immunodeficiency virus type 1 reverse transcriptase (Human immunodeficiency virus 1, UniProt Q72547); assay: Inhibition of HIV-1 reverse transcriptase assessed as inhibition of biotin dUTP incorporation by primer extension assay

## O=C1Nc2ccc(Cl)cc2[C@@](C#CC2CC2)(C(F)(F)F)O1 [EFAVIRENZ]
[1]
  EC50: 0.52 µM
[2]
  EC50: 0.009 µM
[3]
  selectivity ratio: > 693

## COc1ccnc(Nc2ccc(Cl)c(OCc3ccccc3C)c2)n1
[1]
  EC50: > 8.8 µM
[2]
  EC50: 0.082 µM
[4]
  EC50: > 8.8 µM
[5]
  CC50 at 120 h: 8.8 µM
[3]
  selectivity ratio: 106

## COc1ccnc(Nc2ccc(Cl)c(OCc3cccc(Cl)c3)c2)n1
[1]
  EC50: > 332 µM
[2]
  EC50: 0.23 µM
[4]
  EC50: > 332 µM
[5]
  CC50 at 120 h: > 332 µM
[3]
  selectivity ratio: > 1460

## COc1ccnc(Nc2ccc(Cl)c(OCc3ccccc3Cl)c2)n1
[1]
  EC50: > 33 µM
[2]
  EC50: 0.23 µM
[4]
  EC50: > 33 µM
[5]
  CC50 at 120 h: 33 µM
[3]
  selectivity ratio: 143

## COc1ccnc(Nc2ccc(Cl)c(OCc3ccccc3C#N)c2)n1
[1]
  EC50: > 199 µM
[2]
  EC50: 0.15 µM
[4]
  EC50: > 199 µM
[5]
  CC50 at 120 h: 199 µM
[3]
  selectivity ratio: 1290

## COc1ccnc(Nc2ccc(Cl)c(OCc3cccc(F)c3)c2)n1
[1]
  EC50: > 347 µM
[2]
  EC50: 0.07 µM
[4]
  EC50: > 347 µM
[5]
  CC50 at 120 h: > 347 µM
[6]
  IC50: 1.5 µM
[3]
  selectivity ratio: > 4870

## COc1ccnc(Nc2ccc(Cl)c(OCc3ccccc3Br)c2)n1
[1]
  EC50: > 52 µM
[2]
  EC50: 0.33 µM
[4]
  EC50: > 52 µM
[5]
  CC50 at 120 h: 52 µM
[3]
  selectivity ratio: 158

## COc1ccnc(Nc2ccc(Cl)c(OCc3ccc(Cl)c(Cl)c3)c2)n1
[2]
  EC50: > 304 µM
[4]
  EC50: > 304 µM
[5]
  CC50 at 120 h: > 304 µM
[3]
  selectivity ratio: > 1

## COc1ccnc(Nc2ccc(Cl)c(OCc3ccc(C#N)cc3)c2)n1
[1]
  EC50: > 283 µM
[2]
  EC50: 17 µM
[4]
  EC50: > 283 µM
[5]
  CC50 at 120 h: 283 µM
[3]
  selectivity ratio: 17

## COc1ccnc(Nc2ccc(Cl)c(OCc3ccc(Cl)cc3Cl)c2)n1
[2]
  EC50: > 77 µM
[4]
  EC50: > 77 µM
[5]
  CC50 at 120 h: 77 µM
[3]
  selectivity ratio: < 1

## COc1ccc(COc2cc(Nc3nccc(OC)n3)ccc2Cl)cc1
[1]
  EC50: > 290 µM
[2]
  EC50: 7.8 µM
[4]
  EC50: > 290 µM
[5]
  CC50 at 120 h: ≥ 290 µM
[3]
  selectivity ratio: ≥ 37

## COc1ccnc(Nc2ccc(Cl)c(OCc3cccc(Br)c3)c2)n1
[1]
  EC50: > 297 µM
[2]
  EC50: 0.76 µM
[4]
  EC50: > 297 µM
[5]
  CC50 at 120 h: > 297 µM
[3]
  selectivity ratio: > 393

## COc1ccnc(Nc2ccc(Cl)c(OCc3ccc(Cl)cc3)c2)n1
[1]
  EC50: > 95 µM
[2]
  EC50: 7.7 µM
[4]
  EC50: > 95 µM
[5]
  CC50 at 120 h: 95 µM
[3]
  selectivity ratio: 12

## COC(=O)c1ccc(COc2cc(Nc3nccc(OC)n3)ccc2Cl)cc1
[2]
  EC50: > 106 µM
[4]
  EC50: > 1.6 µM
[5]
  CC50 at 120 h: ≥ 106 µM
[3]
  selectivity ratio: < 1

## COc1ccnc(Nc2ccc(Cl)c(OCc3ccccc3)c2)n1
[1]
  EC50: > 62 µM
[2]
  EC50: 0.075 µM
[4]
  EC50: > 62 µM
[5]
  CC50 at 120 h: 62 µM
[3]
  selectivity ratio: 833

## COc1ccnc(Nc2ccc(Cl)c(OCc3ccccc3F)c2)n1
[1]
  EC50: > 42 µM
[2]
  EC50: 0.05 µM
[4]
  EC50: > 42 µM
[5]
  CC50 at 120 h: 42 µM
[3]
  selectivity ratio: 777

## COc1ccnc(Nc2ccc(Cl)c(OCc3ccc(C(N)=O)cc3)c2)n1
[1]
  EC50: > 325 µM
[2]
  EC50: 35 µM
[4]
  EC50: > 325 µM
[5]
  CC50 at 120 h: > 325 µM
[3]
  selectivity ratio: > 9

## COc1ccnc(Nc2ccc(Cl)c(OCc3ccc(F)cc3)c2)n1
[1]
  EC50: > 218 µM
[2]
  EC50: 0.71 µM
[4]
  EC50: > 218 µM
[5]
  CC50 at 120 h: 218 µM
[3]
  selectivity ratio: 309

## Cc1ccnc2c1NC(=O)c1cccnc1N2C1CC1 [NEVIRAPINE]
[1]
  EC50: > 5 µM
[2]
  EC50: 0.113 µM
[5]
  CC50 at 120 h: > 15 µM

## COc1ccnc(Nc2ccc(Cl)c(Oc3ccccc3)c2)n1
[3]
  selectivity ratio: 15

## COc1ccnc(Nc2ccc(Cl)c(OCc3ccc(Br)cc3)c2)n1
[1]
  EC50: > 224 µM
[2]
  EC50: 23 µM
[4]
  EC50: > 224 µM
[5]
  CC50 at 120 h: 224 µM
[3]
  selectivity ratio: 10

## COc1ccnc(Nc2ccc(Cl)c(OCc3ccc([N+](=O)[O-])cc3)c2)n1
[2]
  EC50: > 323 µM
[5]
  CC50 at 120 h: > 323 µM
[3]
  selectivity ratio: > 1
